# Values of other authors in PubChem BioAssay AID1259409 (Chemical Carcinogenesis Research Information System (CCRIS), 2018).
# Test system: rodent chemically induced tumor inhibition, incidence and multiplicity
# Assay: CCRIS tumor inhibitor studies
smiles,measurement,setting,value
O=NO,"tumour outcome (control, treated, inhibition, significance)","Carcinogen: 2-AMINO-1-METHYL-6-PHENYL-1H-IMIDAZO[4,5-B]PYRID INE, 105650-23-5, Dose [Inhibitor]: 0, 0.2% IN DRINKING WATER FOR 4 WK BEGINNING AT 6 WK OF AGE (STUDY DURATION: 48 WK), Route [Inhibitor]: ORAL, Species: RAT, Strain/Sex: SPRAGUE-DAWLEY/FEMALE, Target Tissue: Type of Lesion: MAMMARY GLAND: ADENOCARCINOMA, Dose [Carcinogen]: 100 MG/KG BW 2/WK FOR 4 WK CONCURRENT WITH INHIBITOR, Promoter: NONE USED","11/20 (55%), 6/10 (60%), -9%, not significant"
same,"tumour outcome (control, treated, inhibition, significance)","Carcinogen: 2-AMINO-1-METHYL-6-PHENYL-1H-IMIDAZO[4,5-B]PYRID INE, 105650-23-5, Dose [Inhibitor]: 0, 0.2% IN DRINKING WATER FOR 4 WK BEGINNING AT 6 WK OF AGE (STUDY DURATION: 48 WK), Route [Inhibitor]: ORAL, Species: RAT, Strain/Sex: SPRAGUE-DAWLEY/FEMALE, Target Tissue: Type of Lesion: MAMMARY GLAND: FIBROADENOMA, Dose [Carcinogen]: 100 MG/KG BW 2/WK FOR 4 WK CONCURRENT WITH INHIBITOR, Promoter: NONE USED","3/20 (15%), 2/10 (20%), -33%, not significant"
same,outcome,"Carcinogen: 2-Amino-1-methyl-6-phenylimidazo[4,5-b]pyridine (105650-23-5), Dose [Inhibitor]: 0.2% in drinking water for 4 wk (Study duration 48 wk), Route [Inhibitor]: Oral, Species: Rat, Strain/Sex: Sprague Dawley/Female, Target Tissue: Type of Lesion: Mammary gland: Carcinoma, Dose [Carcinogen]: 100 mg/kg twice a wk for 4 wk (Test material solvent: corn oil), Promoter: None used","11/20 (55%), 6/10 (60%), not significant"
same,outcome,"Carcinogen: 2-Amino-1-methyl-6-phenylimidazo[4,5-b]pyridine (105650-23-5), Dose [Inhibitor]: 0.2% in drinking water for 4 wk (Study duration 48 wk), Route [Inhibitor]: Oral, Species: Rat, Strain/Sex: Sprague Dawley/Female, Target Tissue: Type of Lesion: Mammary gland: Fibroadenoma, Dose [Carcinogen]: 100 mg/kg twice a wk for 4 wk (Test material solvent: corn oil), Promoter: None used","3/20 (15%), 2/10 (20%), not significant"
O=c1c2ccccc2[se]n1-c1ccccc1,"tumour outcome (control, treated, inhibition, significance)","Carcinogen: 17BETA-ESTRADIOL, 50-28-2, Dose [Inhibitor]: 0, 0.2% IN DIET BEGINNING 5 D POST CARCINOGEN DOSE (STUDY DURATION: 7.5 MO), Route [Inhibitor]: ORAL, Species: HAMSTER, Strain/Sex: SYRIAN/MALE, Target Tissue: Type of Lesion: KIDNEY: TUMOR, Dose [Carcinogen]: 25 MG PELLET REPLACED WITH A SECOND PELLET AFTER 4 MO, Promoter: NONE USED","13/13 (100%), 8/11 (73%), 27%, p<0.05"
CCCCC1C(=O)N(c2ccccc2)N(c2ccccc2)C1=O,"tumour outcome (control, treated, inhibition, significance)","Carcinogen: N-NITROSOBIS(2-OXOPROPYL)AMINE, 60599-38-4, Dose [Inhibitor]: 0, 0.25% IN DIET FOR 27 WK BEGINNING POST LAST CARCINOGEN DOSE (STUDY DURATION: 32 WK), Route [Inhibitor]: ORAL, Species: HAMSTER, Strain/Sex: SYRIAN/FEMALE, Target Tissue: Type of Lesion: PANCREAS: ADENOCARCINOMA, Dose [Carcinogen]: 10 MG/KG 1/WK FOR 5 WK, Promoter: NONE USED","20/28 (71%), 7/19 (37%), 48%, p<0.05"
COc1c(C)c(O)c(C(C)=O)c(O)c1Cc1c(O)c(CC=C(C)C)c(O)c(C(C)=O)c1O,"tumour outcome (control, treated, inhibition, significance)","Carcinogen: 7,12-DIMETHYLBENZ[A]ANTHRACENE, 57-97-6, Dose [Inhibitor]: 0, 162 NMOL IN 100 µL ACETONE 2/WK FOR 20 WK BEGINNING 1 WK POST CARCINOGEN DOSE (STUDY DURATION: 21 WK), Route [Inhibitor]: DERMAL, Species: MOUSE, Strain/Sex: ICR/FEMALE, Target Tissue: Type of Lesion: SKIN: TUMOR, Dose [Carcinogen]: 100 UG ONCE, Promoter: 12-O-TETRADECANOYLPHORBOL-13-ACETATE, 16561-29-8","40%, 36%, 10%, not significant"
same,"tumour outcome (control, treated, inhibition, significance)","Carcinogen: 7,12-DIMETHYLBENZ[A]ANTHRACENE, 57-97-6, Dose [Inhibitor]: 0, 1620 NMOL IN 100 µL ACETONE 2/WK FOR 20 WK BEGINNING POST CARCINOGEN DOSE (STUDY DURATION: 21 WK), Route [Inhibitor]: DERMAL, Species: MOUSE, Strain/Sex: ICR/FEMALE, Target Tissue: Type of Lesion: SKIN: TUMOR, Dose [Carcinogen]: 100 UG ONCE, Promoter: 12-O-TETRADECANOYLPHORBOL-13-ACETATE, 16561-29-8","52%, 0%, 100%, not calculated"
CC(C)=CCC/C(C)=C/CC/C(C)=C/C=C/C(C)=C/C(=O)O,outcome,"Carcinogen: 3-METHYL-4-DIMETHYLAMINOAZOBENZENE [3732-90-9], Dose [Inhibitor]: 0, 10, 40, 80 MG/KG BW DAILY FOR 16 WK, Dose [Inhibitor]: 0, 10, 40, 80 MG/KG BW DAILY FOR 16 WK, Route [Inhibitor]: ORAL (GAVAGE), Species: RAT, Strain/Sex: F344/MALE (40,29)/(40,30)/(40,30)/(40,29), Target Tissue: Type of Lesion: LIVER: HEPATOCELLULAR CARCINOMA, Dose [Carcinogen]: 0.06% FOR 16 WK","(17/29) 57%; (16/30) 53%, 9%; (4/30) 13%, 77%, p<0.05; (2/29) 7%, 89%, p<0.05"
same,outcome,"Carcinogen: 3-METHYL-4-DIMETHYLAMINOAZOBENZENE [3732-90-9], Dose [Inhibitor]: 0, 10, 40, 80 MG/KG BW DAILY FOR 16 WK, Dose [Inhibitor]: 0, 10, 40, 80 MG/KG BW DAILY FOR 16 WK, Route [Inhibitor]: ORAL (GAVAGE), Species: RAT, Strain/Sex: F344/MALE (40,29)/(40,30)/(40/30)/(40,29), Target Tissue: Type of Lesion: LIVER: HEPATOCELLULAR ADENOMA, Dose [Carcinogen]: 0.06% FOR 16 WK","(29/29) 100%; (30/30) 100%, 0%; (26/30) 86.7%, 13.3%; (24/29) 82.4%, 17.6%"
O=C(CC(=O)c1ccccc1)c1ccccc1,"tumour outcome (control, treated, inhibition, significance)","Carcinogen: 7,12-DIMETHYLBENZ[A]ANTHRACENE, 57-97-6, Dose [Inhibitor]: 0, 1% IN DIET FOR 22 WK BEGINNING 2 WK PRIOR TO CARCINOGEN DOSE (STUDY DURATION: 22 WK), Route [Inhibitor]: ORAL, Species: MOUSE, Strain/Sex: SENCAR/FEMALE, Target Tissue: Type of Lesion: LYMPHATIC SYSTEM: LYMPHOMA OR LEUKEMIA, Dose [Carcinogen]: 1 MG IN 0.1 ML CORN OIL 1/WK FOR 5 WK, Promoter: NONE USED","45%, 0%, 100%, p<0.05"
same,"tumour outcome (control, treated, inhibition, significance)","Carcinogen: 7,12-DIMETHYLBENZ[A]ANTHRACENE, 57-97-6, Dose [Inhibitor]: 0, 1% IN DIET FOR 22 WK BEGINNING 2 WK PRIOR TO CARCINOGEN DOSE (STUDY DURATION: 22WK), Route [Inhibitor]: ORAL, Species: MOUSE, Strain/Sex: SENCAR/FEMALE, Target Tissue: Type of Lesion: MAMMARY GLAND: TUMOR, Dose [Carcinogen]: 1 MG IN 0.1 ML CORN OIL 1/WK FOR 5 WK, Promoter: NONE USED","68%, 2%, 97%, p<0.05"
same,"tumour outcome (control, treated, inhibition, significance)","Carcinogen: 7,12-DIMETHYLBENZ[A]ANTHRACENE, 57-97-6, Dose [Inhibitor]: 0, 1% IN DIET FOR 22 WK BEGINNING 2 WK PRIOR TO CARCINOGEN DOSE (STUDY DURATION: 22WK), Route [Inhibitor]: ORAL, Species: MOUSE, Strain/Sex: SENCAR/FEMALE, Target Tissue: Type of Lesion: OVARY:TUMOR, Dose [Carcinogen]: 1 MG IN 0.1 ML CORN OIL 1/WK FOR 5 WK, Promoter: NONE USED","20%, 0%, 100%, p<0.05"
same,outcome,"Carcinogen: 7,12-Dimethylbenz[a]anthracene, 57-97-6, Dose [Inhibitor]: 0, 10 umol 3x/wk for 10 wk, Route [Inhibitor]: Dermal, Species: Mouse, Strain/Sex: CD-1/Female, Target Tissue: Type of Lesion: Skin: tumor, Dose [Carcinogen]: 200 nmol in 200 ul acetone, once, study duration 11 wk, Promoter: Mirex, 2385-85-5","37%, 15%, not significant"
same,outcome,"Carcinogen: 7,12-Dimethylbenz[a]anthracene, 57-97-6, Dose [Inhibitor]: 0, 10 umol 3x/wk for 14 wk, Route [Inhibitor]: Dermal, Species: Mouse, Strain/Sex: CD-1/Female, Target Tissue: Type of Lesion: Skin: tumor, Dose [Carcinogen]: 200 nmol in 200 ul acetone, once, study duration 15 wk, Promoter: Mirex, 2385-85-5","60%, 40%, not significant"
same,outcome,"Carcinogen: 7,12-Dimethylbenz[a]anthracene, 57-97-6, Dose [Inhibitor]: 0, 10 umol 3x/wk for 18 wk, Route [Inhibitor]: Dermal, Species: Mouse, Strain/Sex: CD-1/Female, Target Tissue: Type of Lesion: Skin: tumor, Dose [Carcinogen]: 200 nmol in 200 ul acetone, once, study duration 19 wk, Promoter: Mirex, 2385-85-5","80%, 70%, not significant"
same,outcome,"Carcinogen: 7,12-Dimethylbenz[a]anthracene, 57-97-6, Dose [Inhibitor]: 0, 1% in diet for 22 wk beginning 2 wk prior to carcinogen dose (study duration: 22wk), Route [Inhibitor]: Oral, Species: Mouse, Strain/Sex: Sencar/Female, Target Tissue: Type of Lesion: Mammary Gland: Tumor, Dose [Carcinogen]: 1 mg in 0.1 ml corn oil 1/wk for 5 wk, Promoter: None","3%, 0%, 100% at 3 wk; 38%, 0%, 100% at 9 wk; 55%, 0% at 13 wk; 68%, 3%, 96% at 2"
CSCC[C@H](NC(=O)[C@@H](N)Cc1c[nH]c2ccccc12)C(=O)N[C@@H](CC(=O)O)C(=O)N[C@@H](Cc1ccccc1)C(N)=O,"tumour outcome (control, treated, inhibition, significance)","Carcinogen: N-METHYL-N'-NITRO-N-NITROSOGUANIDINE, 70-25-7, Dose [Inhibitor]: 1 MG/KG BW IN DEPOT FORM 1/2 D BEGINNING 1 WK POST LAST CARCINOGEN DOSE FOR DURATION OF STUDY (STUDY DURATION: 52 WK), Route [Inhibitor]: SUBCUTANEOUS, Species: RAT, Strain/Sex: WISTAR/MALE, Target Tissue: Type of Lesion: STOMACH: ADENOCARCINOMA, Dose [Carcinogen]: 50 UG/ML IN DRINKING WATER FOR 25 WK, Promoter: NONE USED","12/19 (63%), 6/19 (32%), 49%, p<0.05"
